Here are results for five compounds from patent US20220089609A1, “SUBSTITUTED QUINAZOLINONE DERIVATIVES AND THEIR USE AS POSITIVE ALLOSTERIC MODULATORS OF MGLUR4” (DOMAIN THERAPEUTICS, priority 2018, published 2022).

The test system of data set [1] is haloperidol-induced catalepsy. Put plainly: Haloperidol-induced catalepsy model in the mouse (bar test). Particulars: 1 mg/kg per os 60 minutes after haloperidol (1 mg/kg i.p.), measured between 135 and 270 min after haloperidol injection. In kind it is in vivo. Here is the method: This method, which detects anti-cataleptic activity, follows those well-known by one skilled in the art and described in the literature (e.g. Pires et al., Braz J Med and Biol Res 38, 1867-1872, 2005; Shiozaki et al., Psychopharmacology 147, 90-95, 1999). Catalepsy is a symptom of Parkinson's disease, and is characterized by muscular rigidity and fixity of posture.
The procedure applied to the compounds of the invention is as follows:
Catalepsy is assessed using the bar test in mice submitted to acute administration of haloperidol (1 mg/kg, intra-peritoneal or i.p.). Mice (male RjOrl:SWISS mice, weighing 30-35 g at the beginning of the experiment) were placed (6 to 9 in each group) in Plexiglas cages, and injected with haloperidol (1 mg/kg i.p.). The catalepsy response of one mouse was measured when the animal maintained an imposed posture with both forelimbs placed on a horizontal 0.9 cm diameter wire bar suspended 4 cm above a platform. The end point of catalepsy was considered to occur when both forelimbs were removed from the bar, the mouse climbed onto the bar or if the animal moved its head in an exploratory manner. A cut-off time of 180 seconds was applied. The degree of catalepsy was scored 45 minutes after haloperidol administration and continued at 45 minutes intervals for a total of 270 minutes. Between determinations, the animals were returned to their home cages.
Compounds 81, 100, 114, 119, 143 and 144 were evaluated at 1 mg/kg, administered per os, 60 minutes after haloperidol, and compared with a vehicle control group.
The anti-cataleptic effect of the compound was compared to vehicle-treated group using ANOVA test followed by the Dunnett's test.

The next data set addresses T1, human mGluR4 (hmGluR4) (Homo sapiens, UniProt Q14833).
T1 construct: expressed in transfected cells; host or cells: HEK-293 cells, transient co-transfection by electroporation
In words: Calcium assay EC50 determination, positive allosteric modulator activity on hmGluR4 transiently over-expressed in HEK-293 cells. In kind it is cell-based. Particulars: PAM mode with EC20 glutamate; hmGluR4 in HEK-293 cells; intracellular calcium (Fluo4AM); read-out: mGluR4 positive allosteric modulator activity, half maximal effective concentration (EC50). The method in brief:
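HEK-293 cells transiently co-transfected with hmGluR4, chimeric G protein and glutamate transporters; Fluo4AM calcium read (ex 485/em 525 nm) on FLIPR Tetra. Compound alone 10 min for agonism, then EC20 glutamate with 3 min recording for PAM activity, versus buffer or EC20 glutamate basal.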
(Calcium assays in cells follow changes in intracellular calcium, usually with a dye or a luminescent sensor.)

Where a name gives a salt, the structure may show the parent alone.

T1 sequence (Q14833 33-912): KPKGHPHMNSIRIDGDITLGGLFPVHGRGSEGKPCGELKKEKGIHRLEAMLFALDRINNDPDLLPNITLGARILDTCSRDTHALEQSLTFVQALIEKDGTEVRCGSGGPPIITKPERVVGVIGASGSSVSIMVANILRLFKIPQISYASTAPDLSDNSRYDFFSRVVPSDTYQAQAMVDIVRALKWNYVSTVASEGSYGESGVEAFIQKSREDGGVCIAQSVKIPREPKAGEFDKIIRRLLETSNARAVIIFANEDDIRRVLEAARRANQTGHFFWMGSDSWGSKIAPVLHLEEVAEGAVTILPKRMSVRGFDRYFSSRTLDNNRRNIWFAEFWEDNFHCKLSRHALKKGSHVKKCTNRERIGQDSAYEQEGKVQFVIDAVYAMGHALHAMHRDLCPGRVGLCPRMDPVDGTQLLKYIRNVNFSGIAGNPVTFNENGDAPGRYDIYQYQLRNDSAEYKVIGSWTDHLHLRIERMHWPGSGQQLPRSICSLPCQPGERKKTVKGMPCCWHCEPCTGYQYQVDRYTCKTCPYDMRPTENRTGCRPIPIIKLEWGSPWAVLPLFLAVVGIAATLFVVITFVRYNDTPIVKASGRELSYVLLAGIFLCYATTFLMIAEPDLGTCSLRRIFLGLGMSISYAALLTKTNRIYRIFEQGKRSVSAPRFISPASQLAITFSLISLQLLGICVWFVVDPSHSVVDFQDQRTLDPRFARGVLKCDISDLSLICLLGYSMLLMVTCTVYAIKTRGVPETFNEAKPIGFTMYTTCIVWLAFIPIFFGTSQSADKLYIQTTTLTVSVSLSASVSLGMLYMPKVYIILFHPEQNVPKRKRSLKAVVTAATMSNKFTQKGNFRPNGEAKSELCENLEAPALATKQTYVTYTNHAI

For `Cc1cc(OC2CCC(=O)N(C)C2)cc2c(=O)[nH]c(-c3cc4ccsc4cn3)nc12` (stereo not shown) [Compound 81, 8-Methyl-6-(1-methyl-6-oxo-piperidin-3-yloxy)-2-thieno[2,3-c]pyridin-5-yl-3H-quinazolin-4-one], the melting point was in the range of 221 to 225 °C. Moreover, in data set [1], the “anti-cataleptic effect (mean time of latency spent on the bar) compared to vehicle-treated group” value is recorded as “significant anti-cataleptic effect”. Besides, on human mGluR4 (hmGluR4), the EC50 is not above 100 nM.

For the compound `Cc1cc(CCN2CCOCC2)cc2c(=O)[nH]c(-c3cc4ccsc4cn3)nc12` [Compound 100, 8-methyl-6-(2-morpholin-4-yl-ethyl)-2-thieno[2,3-c]pyridin-5-yl-3H-quinazolin-4-one hydrochloride], the “anti-cataleptic effect (mean time of latency spent on the bar) compared to vehicle-treated group” value in data set [1] is “significant anti-cataleptic effect”. In addition, on human mGluR4 (hmGluR4), the EC50 was not above 100 nM.

On to `Cc1cc(CN2CCOCC2)cc2c(=O)[nH]c(-c3cc4ccsc4cn3)nc12` [Compound 114, 8-methyl-6-(morpholinomethyl)-2-thieno[2,3-c]pyridin-5-yl-3H-quinazolin-4-one hydrochloride], for which the “anti-cataleptic effect (mean time of latency spent on the bar) compared to vehicle-treated group” value in data set [1] is “significant anti-cataleptic effect”. Moreover, on human mGluR4 (hmGluR4), the EC50 is not above 100 nM.

`Cc1cc(CN2CCOCC2)cc2c(=O)[nH]c(-c3cc4sccc4cn3)nc12.Cl` [Compound 119, 8-Methyl-6-(morpholinomethyl)-2-(thieno[3,2-c]pyridin-6-yl)quinazolin-4(3H)-one hydrochloride] gave a melting point of more than 250 °C. Besides, in data set [1], the “anti-cataleptic effect (mean time of latency spent on the bar) compared to vehicle-treated group” value is reported as “significant anti-cataleptic effect”. Besides, the EC50 at human mGluR4 (hmGluR4) is not above 100 nM.

As to `Cc1cc(CCN2CCN(C)C(=O)C2)cc2c(=O)[nH]c(-c3cc4sccc4cn3)nc12.Cl` [Compound 143, 8-Methyl-6-[2-(4-methyl-3-oxo-piperazin-1-yl)ethyl]-2-thieno[3,2-c]pyridin-6-yl-3H-quinazolin-4-one hydrochloride], the melting point is more than 250 °C. Further, the “anti-cataleptic effect (mean time of latency spent on the bar) compared to vehicle-treated group” value in data set [1] is given as “significant anti-cataleptic effect”. At human mGluR4 (hmGluR4), the EC50 was not above 100 nM.

For orientation: melting point means the temperature, or range, at which the solid turns liquid.
